# From patent US20060069132A1, “Azolecarboxamide herbicides” (priority 2004, published 2006)
# What was measured:
# [1] = tested on: barnyardgrass; test: Test C flooded paddy test; assay type: in vivo, Echinochloa crus-galli
# How it was run: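 Weeds and wheat were sprayed after emergence, at a height of 2 to 18 cm (1–4 leaves), and paddy barnyardgrass was flooded and treated at two leaves. Assessment took place 12–14 days later in the greenhouse on a 0-to-100 visual control scale. A dash means no result was obtained.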
# [2] = tested on: barnyardgrass; test: Test B pre-/postemergence herbicide test; assay type: in vivo, Echinochloa crus-galli; conditions: for Barnyardgrass plant response rating: postemergence, scale 0 (no effect) to 100 (complete control)
# How it was run: (§1)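 Species tested were Echinochloa crus-galli, Ipomoea coccinea, Xanthium strumarium and Oryza sativa, treated both before emergence and at the 1- to 4-leaf stage; rice and barnyardgrass were also tested under flooding at 2 leaves. Greenhouse incubation lasted 13–15 days before visual 0–100 scoring.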
# [3] = tested on: pigweed; test: Test B pre-/postemergence herbicide test; assay type: in vivo, Amaranthus retroflexus; conditions: for Pigweed plant response rating: postemergence
# How it was run: (§2)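 Herbicidal effect was judged by eye on a 0–100 scale after plants stood 13 to 15 days in the greenhouse following pre- or postemergence treatment with surfactant-containing formulations.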
# [4] = tested on: small flower umbrella sedge; test: Test B flooded paddy test; assay type: in vivo, Cyperus difformis; conditions: 1000 g ai/ha, scale 0 to 100 (0 no effect, 100 complete control)
# How it was run: (§3)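 Plants grow to 1- to 4-leaf stage (2–18 cm) for postemergence spraying, or to 2-leaf stage for the paddy test. Formulated compound is applied. Greenhouse holding lasts 13–15 days. Response is scored visually relative to controls, 0 no effect to 100 complete control; a dash means no result.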
# [5] = tested on: rice; test: Test C flooded paddy test; assay type: in vivo, Oryza sativa
# How it was run: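 Plants were grown to the 1- to 4-leaf stage (2–18 cm) and then treated postemergence, or grown to the 2-leaf stage for the flooded paddy test. They were held in a greenhouse for 12 to 14 days and then scored by eye against controls, where 0 is no effect and 100 is complete control.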
# [6] = tested on: rice; test: Test B pre-/postemergence herbicide test; assay type: in vivo, Oryza sativa; conditions: 0 = no effect, 100 = complete control, preemergence
# How it was run: as §2
# [7] = tested on: wild oat; test: Test B postemergence herbicide test; assay type: in vivo, Avena fatua; conditions: postemergence
# How it was run: (§4)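 After treating 2-leaf paddy plants or 2–18 cm postemergence plants (1 to 4 leaves) with formulated chemical, researchers kept them in a greenhouse for 13–15 days. Effects were judged visually versus controls: 0 indicates none, 100 total control.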
# [8] = tested on: giant foxtail; test: Test B pre-/postemergence herbicide test; assay type: in vivo, Setaria faberi; conditions: for Foxtail, Giant plant response rating: postemergence
# How it was run: as §2
# [9] = tested on: blackgrass; test: Test B postemergence herbicide test; assay type: in vivo, Alopecurus myosuroides; conditions: postemergence, visual rating, scale 0 (no effect) to 100 (complete control)
# How it was run: as §3
# [10] = tested on: Surinam grass; test: Test B pre-/postemergence herbicide test; assay type: in vivo, Urochloa decumbens; conditions: for Surinam Grass plant response rating: postemergence
# How it was run: as §2
# [11] = tested on: velvetleaf; test: Test B pre-/postemergence herbicide test; assay type: in vivo, Abutilon theophrasti; conditions: for Velvetleaf plant response rating: postemergence
# How it was run: as §2
# [12] = tested on: ducksalad; test: Test B flooded paddy test; assay type: in vivo, Heteranthera limosa; conditions: 1000 g ai/ha, scale 0 to 100 (0 no effect, 100 complete control)
# How it was run: as §3
# [13] = tested on: barnyardgrass; test: Test B flooded paddy test; assay type: in vivo, Echinochloa crus-galli; conditions: 1000 g ai/ha, scale 0 to 100 (0 no effect, 100 complete control)
# How it was run: as §3
# [14] = tested on: large crabgrass; test: Test B pre-/postemergence herbicide test; assay type: in vivo, Digitaria sanguinalis; conditions: for Crabgrass, Large plant response rating: postemergence
# How it was run: as §2
# [15] = tested on: ducksalad; test: Test C flooded paddy test; assay type: in vivo, Heteranthera limosa
# [16] = tested on: smallflower umbrella sedge; test: Test C flooded paddy test; assay type: in vivo, Cyperus difformis
# [17] = tested on: wheat; test: Test B postemergence herbicide test; assay type: in vivo, Triticum aestivum; design: key to Wheat plant response rating: 0 = no effect, 100 = complete control; conditions: postemergence
# How it was run: as §4
# [18] = tested on: corn; test: Test B pre-/postemergence herbicide test; assay type: in vivo, Zea mays; conditions: for Corn plant response rating: postemergence
# How it was run: as §2
# [19] = tested on: morningglory; test: Test B pre-/postemergence herbicide test; assay type: in vivo, Ipomoea coccinea; conditions: for Morningglory plant response rating: postemergence
# How it was run: as §1
# [20] = tested on: cocklebur; test: Test B pre-/postemergence herbicide test; assay type: in vivo, Xanthium strumarium; conditions: for Cocklebur plant response rating: postemergence, scale 0 (no effect) to 100 (complete control)
# How it was run: as §1
# [21] = tested on: lambsquarters; test: Test B pre-/postemergence herbicide test; assay type: in vivo, Chenopodium album; conditions: for Lambsquarters plant response rating: postemergence
# How it was run: as §2
# [22] = tested on: rice; test: Test B flooded paddy test; assay type: in vivo, Oryza sativa; conditions: 1000 g ai/ha, scale 0 to 100 (0 no effect, 100 complete control)
# How it was run: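 Treated at 2-leaf (paddy) or 1–4-leaf, 2–18 cm (postemergence); greenhouse 13–15 d; visual score vs control, 0 none to 100 complete control; dash = not tested.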
# [23] = 125 g ai/ha, scale 0 to 100 (0 no effect, 100 complete control)
# [24] = 250 g ai/ha, scale of 0 to 100, 0 is no effect, 100 is complete control
# [25] = 500 g ai/ha, visual rating after 12 to 14 days, scale 0 to 100 (0 no effect, 100 complete control)
# [26] = 125 g ai/ha, 0 = no effect, 100 = complete control, preemergence
# [27] = 500 g ai/ha, visual rating, 0 = no effect, 100 = complete control, preemergence
# [28] = 125 g ai/ha, visual rating, scale 0 (no effect) to 100 (complete control)
# [29] = 500 g ai/ha, scale 0 to 100, 0 is no effect, 100 is complete control
structure (smiles),measurement,setting,value
CCNC(=O)c1ccc(OC)c(NC(=O)c2cc(C(C)(C)C)nn2CC)n1 [Compound 266],Barnyardgrass plant response rating,"[1]; 62 g ai/ha, scale 0 to 100 (0 no effect, 100 complete control)",0
same,Barnyardgrass plant response rating,[1]; [23],25
same,Barnyardgrass plant response rating,[1]; [24],50
same,"Plant response rating, Barnyardgrass",[1]; [25],70
same,Barnyardgrass plant response rating (0 to 100 scale),[2]; [26],60
same,"Plant response rating, Barnyardgrass",[2]; [27],80
same,Barnyardgrass plant response rating,"[2]; 125 g ai/ha, visual rating",0
same,Barnyardgrass plant response rating,"[2]; 500 g ai/ha, visual rating",0
same,Pigweed plant response rating (0 to 100 scale),[3]; [26],100
same,"Plant response rating, Pigweed",[3]; [27],100
same,Pigweed plant response rating,[3]; [28],20
same,Pigweed plant response rating,[3]; [29],100
same,"Sedge, Umbrella plant response rating",[4],80
same,Rice plant response rating,"[5]; 62 g ai/ha, scale 0 to 100",0
same,Rice plant response rating,[5]; [23],10
same,Rice plant response rating,[5]; [24],65
same,"Plant response rating, Rice",[5]; [25],80
same,Rice plant response rating (0 to 100 scale),[6]; 125 g ai/ha,70
same,"Plant response rating, Rice","[6]; 500 g ai/ha, visual rating",80
same,"Oat, Wild plant response rating",[7]; [28],10
same,"Oat, Wild plant response rating",[7]; [29],20
same,"Foxtail, Giant plant response rating (0 to 100 scale)",[8]; [26],80
same,"Plant response rating, Foxtail, Giant",[8]; [27],100
same,"Foxtail, Giant plant response rating",[8]; [28],0
same,"Foxtail, Giant plant response rating",[8]; [29],20
same,Blackgrass plant response rating,[9]; 125 g ai/ha,20
same,Blackgrass plant response rating,[9]; 500 g ai/ha,20
same,Surinam Grass plant response rating (0 to 100 scale),[10]; [26],60
same,"Plant response rating, Surinam Grass",[10]; [27],90
same,Surinam Grass plant response rating,[10]; [28],10
same,Surinam Grass plant response rating,[10]; [29],20
same,Velvetleaf plant response rating (0 to 100 scale),[11]; [26],20
same,"Plant response rating, Velvetleaf",[11]; [27],100
same,Velvetleaf plant response rating,[11]; [28],0
same,Velvetleaf plant response rating,[11]; [29],0
same,Ducksalad plant response rating,[12],90
same,Barnyardgrass plant response rating,[13],80
same,"Crabgrass, Large plant response rating (0 to 100 scale)",[14]; [26],50
same,"Plant response rating, Crabgrass, Large",[14]; [27],100
same,"Crabgrass, Large plant response rating",[14]; [28],0
same,"Crabgrass, Large plant response rating",[14]; [29],0
same,Ducksalad plant response rating,"[15]; 62 g ai/ha, scale 0 to 100",0
same,Ducksalad plant response rating,[15]; [23],15
same,Ducksalad plant response rating,[15]; [24],75
same,"Plant response rating, Ducksalad",[15]; [25],95
same,"Sedge, Umbrella plant response rating","[16]; 62 g ai/ha, scale 0 to 100",0
same,"Sedge, Umbrella plant response rating",[16]; [23],20
same,"Sedge, Umbrella plant response rating",[16]; [24],55
same,"Plant response rating, Sedge, Umbrella",[16]; [25],80
same,Wheat plant response rating,[17]; [28],20
same,Wheat plant response rating,[17]; [29],30
same,Corn plant response rating (0 to 100 scale),[18]; [26],0
same,"Plant response rating, Corn",[18]; [27],90
same,Corn plant response rating,[18]; [28],0
same,Corn plant response rating,[18]; [29],0
same,Morningglory plant response rating (0 to 100 scale),[19]; [26],0
same,"Plant response rating, Morningglory",[19]; [27],10
same,Morningglory plant response rating,[19]; [28],30
same,Morningglory plant response rating,[19]; [29],50
same,Cocklebur plant response rating (0 to 100 scale),[20]; [26],0
same,"Plant response rating, Cocklebur",[20]; [27],10
same,Cocklebur plant response rating,"[20]; 125 g ai/ha, visual rating",0
same,Cocklebur plant response rating,"[20]; 500 g ai/ha, visual rating",0
same,Lambsquarters plant response rating (0 to 100 scale),[21]; [26],100
same,"Plant response rating, Lambsquarters",[21]; [27],100
same,Lambsquarters plant response rating,[21]; [28],60
same,Lambsquarters plant response rating,[21]; [29],100
same,Rice plant response rating,[22],80
